Results published in US10294202B2, “Pyrrolidinones as herbicides” (FMC Corporation, priority 2013, dated 2019).

Key:
barnyardgrass [1] = test: Test A pre-/postemergence herbicide test; assay type: in vivo, Echinochloa crus-galli
Method in brief: (§1)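 Greenhouse pot test with pre- and postemergence application of surfactant-containing solvent formulations. Postemergence plants were 2–10 cm, one- to two-leaf stage. Response scored visually after ~10 days, 0 (no effect) to 100 (complete control).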

ryegrass, Italian = test: Test A pre-/postemergence herbicide test; assay type: in vivo, Lolium multiflorum
Method in brief: as §1

kochia = test: Test A pre-/postemergence herbicide test; assay type: in vivo, Kochia scoparia
Method in brief: as §1

ducksalad = test: Test B flooded paddy test; assay type: in vivo, Heteranthera limosa; conditions: Flood, scale of 0 to 100 where 0 is no effect and 100 is complete control
Method in brief: (§2)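 Scored visually 0–100 (0 no effect, 100 complete control) versus controls after 13 to 15 greenhouse days. Treatment: compound added to paddy water kept 3 cm above soil, on 2-leaf-stage plants.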

giant foxtail = test: Test A pre-/postemergence herbicide test; assay type: in vivo, Setaria faberii
Method in brief: as §1

blackgrass = test: Test A postemergence herbicide test; assay type: in vivo, Alopecurus myosuroides
Method in brief: (§3)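 Young potted plants in a loam–sand mix, one- to two-leaf stage and 2–10 cm tall, receive the test chemical postemergence and stay in a greenhouse for approximately 10 days. Injury is then judged by eye against untreated plants, scored 0 (none) to 100 (complete control).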

corn = test: Test A pre-/postemergence herbicide test; assay type: in vivo, Zea mays; conditions: Postemergence
Method in brief: as §1

barnyardgrass [2] = test: Test B flooded paddy test; assay type: in vivo, Echinochloa crus-galli; conditions: Flood, scale of 0 to 100 where 0 is no effect and 100 is complete control
Method in brief: as §2

ragweed = test: Test A pre-/postemergence herbicide test; assay type: in vivo, Ambrosia elatior
Method in brief: as §1

rice = test: Test B flooded paddy test; assay type: in vivo, Oryza sativa; conditions: Flood, scale of 0 to 100 where 0 is no effect and 100 is complete control
Method in brief: as §2

sedge, umbrella = test: Test B flooded paddy test; assay type: in vivo, Cyperus difformis; conditions: Flood, scale of 0 to 100 where 0 is no effect and 100 is complete control
Method in brief: as §2

pigweed = test: Test A pre-/postemergence herbicide test; assay type: in vivo, Amaranthus retroflexus
Method in brief: as §1

wheat = test: Test A pre-/postemergence herbicide test; assay type: in vivo, Triticum aestivum; conditions: Postemergence
Method in brief: as §1

galium = test: Test A postemergence herbicide test; assay type: in vivo, Galium aparine
Method in brief: as §3

[3] = Postemergence, 125 g ai/ha, 0 to 100 scale, 0 no effect, 100 complete control
[4] = Postemergence, 500 g ai/ha, 0 to 100 scale (0 no effect, 100 complete control)
[5] = Preemergence, 125 g ai/ha, visual rating on 0 to 100 scale (0 no effect, 100 complete control)
[6] = preemergence, 500 g ai/ha, 0 to 100 scale (0 no effect, 100 complete control)
[7] = preemergence, 500 g ai/ha, 0 to 100 scale
[8] = 125 g ai/ha, 0 to 100 scale, 0 no effect, 100 complete control
[9] = 500 g ai/ha, 0 to 100 scale (0 no effect, 100 complete control)
[10] = 125 g ai/ha, visual rating, 0 to 100 scale, 0 no effect, 100 complete control, approximately 10 days, preemergence

Compound: O=C1NCC(c2cccc(C(F)(F)F)c2)C1C(=O)Nc1ccccn1 (racemic) [Compound 110]
- Plant response rating, Barnyardgrass (barnyardgrass [1]; [3]): 50
- Plant response rating, Barnyardgrass (barnyardgrass [1]; [4]): 90
- Barnyardgrass plant response rating (barnyardgrass [1]; [5]): 70
- Plant response rating, Barnyardgrass (barnyardgrass [1]; [6]): 90
- Plant response rating, Ryegrass, Italian (ryegrass, Italian; [3]): 20
- Plant response rating, Ryegrass, Italian (ryegrass, Italian; [4]): 40
- Ryegrass, Italian plant response rating (ryegrass, Italian; [5]): 0
- Plant response rating, Ryegrass, Italian (ryegrass, Italian; [7]): 0
- Plant response rating, Kochia (kochia; [3]): 0
- Plant response rating, Kochia (kochia; [4]): 0
- Kochia plant response rating (kochia; [5]): 0
- Plant response rating, Kochia (kochia; [7]): 0
- Plant response rating, Ducksalad (ducksalad; 1000 g ai/ha): 95
- Plant response rating, Foxtail, Giant (giant foxtail; [3]): 80
- Plant response rating, Foxtail, Giant (giant foxtail; [4]): 90
- Foxtail, Giant plant response rating (giant foxtail; [5]): 60
- Plant response rating, Foxtail, Giant (giant foxtail; [7]): 90
- Plant response rating, Blackgrass (blackgrass; [8]): 0
- Plant response rating, Blackgrass (blackgrass; [9]): 70
- Plant response rating, Corn (corn; [8]): 0
- Plant response rating, Corn (corn; [9]): 20
- Plant response rating, Barnyardgrass (barnyardgrass [2]; 1000 g ai/ha): 0
- Plant response rating, Ragweed (ragweed; [3]): 0
- Plant response rating, Ragweed (ragweed; [4]): 0
- Ragweed plant response rating (ragweed; [5]): 0
- Plant response rating, Ragweed (ragweed; [7]): 0
- Plant response rating, Rice (rice; 1000 g ai/ha): 0
- Plant response rating, Sedge, Umbrella (sedge, umbrella; 1000 g ai/ha): 50
- Plant response rating, Pigweed (pigweed; [3]): 0
- Plant response rating, Pigweed (pigweed; [4]): 0
- Pigweed plant response rating (pigweed; [5]): 0
- Plant response rating, Pigweed (pigweed; [7]): 0
- Plant response rating, Wheat (wheat; [8]): 0
- Plant response rating, Wheat (wheat; [9]): 20
- Plant response rating, Galium (galium; [8]): 20
- Plant response rating, Galium (galium; [9]): 40

Compound: COc1cc(C2CNC(=O)C2C(=O)Nc2ccc(F)cc2F)ccc1F (racemic) [Compound 131]
- Plant response rating, Barnyardgrass (barnyardgrass [1]; [10]): 50
- Plant response rating, Barnyardgrass (barnyardgrass [1]; [3]): 50
- Barnyardgrass plant response rating (0 to 100 scale, 0 is no effect, 100 is complete control) (barnyardgrass [1]; Postemergence, 500 g ai/ha): 60
- Plant response rating, Barnyardgrass (barnyardgrass [1]; [6]): 60
- Plant response rating, Ryegrass, Italian (ryegrass, Italian; [10]): 0
- Plant response rating, Ryegrass, Italian (ryegrass, Italian; [3]): 0
- Ryegrass, Italian plant response rating (0 to 100 scale, 0 is no effect, 100 is complete control) (ryegrass, Italian; Postemergence, 500 g ai/ha): 0
- Plant response rating, Ryegrass, Italian (ryegrass, Italian; [7]): 0
- Plant response rating, Kochia (kochia; [10]): 0
- Plant response rating, Kochia (kochia; [3]): 0
- Kochia plant response rating (0 to 100 scale, 0 is no effect, 100 is complete control) (kochia; Postemergence, 500 g ai/ha): 0
- Plant response rating, Kochia (kochia; [7]): 0
- Plant response rating, Ducksalad (ducksalad; 500 g ai/ha): 70
- Plant response rating, Foxtail, Giant (giant foxtail; [10]): 50
- Plant response rating, Foxtail, Giant (giant foxtail; [3]): 50
- Foxtail, Giant plant response rating (0 to 100 scale, 0 is no effect, 100 is complete control) (giant foxtail; Postemergence, 500 g ai/ha): 50
- Plant response rating, Foxtail, Giant (giant foxtail; [7]): 60
- Plant response rating, Blackgrass (blackgrass; [8]): 0
- Blackgrass plant response rating (0 to 100 scale, 0 is no effect, 100 is complete control) (blackgrass; 500 g ai/ha): 0
- Plant response rating, Corn (corn; [8]): 0
- Corn plant response rating (0 to 100 scale, 0 is no effect, 100 is complete control) (corn; 500 g ai/ha): 0
- Plant response rating, Barnyardgrass (barnyardgrass [2]; 500 g ai/ha): 40
- Plant response rating, Ragweed (ragweed; [10]): 0
- Plant response rating, Ragweed (ragweed; [3]): 0
- Ragweed plant response rating (0 to 100 scale, 0 is no effect, 100 is complete control) (ragweed; Postemergence, 500 g ai/ha): 0
- Plant response rating, Ragweed (ragweed; [7]): 0
- Plant response rating, Rice (rice; 500 g ai/ha): 0
- Plant response rating, Sedge, Umbrella (sedge, umbrella; 500 g ai/ha): 30
- Plant response rating, Pigweed (pigweed; [10]): 0
- Plant response rating, Pigweed (pigweed; [3]): 0
- Pigweed plant response rating (0 to 100 scale, 0 is no effect, 100 is complete control) (pigweed; Postemergence, 500 g ai/ha): 0
- Plant response rating, Pigweed (pigweed; [7]): 0
- Plant response rating, Wheat (wheat; [8]): 0
- Wheat plant response rating (0 to 100 scale, 0 is no effect, 100 is complete control) (wheat; 500 g ai/ha): 0
- Plant response rating, Galium (galium; [8]): 0
- Galium plant response rating (0 to 100 scale, 0 is no effect, 100 is complete control) (galium; 500 g ai/ha): 0
